Results from PubChem BioAssay (NCI).
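Interpolation was linear, between the two tested concentrations surrounding the appropriate level; five concentrations were tested over 48 hours in 96-well plates. The concentration for full growth arrest is given as TGI.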

What was measured:
Test in all cases: NCI tumour cell line growth inhibition, 48 h
HS 578T breast = system: HS 578T breast
HCC-2998 colon = system: HCC-2998 colon
SK-OV-3 ovarian = system: SK-OV-3 ovarian
HL-60(TB) leukemia = system: HL-60(TB) leukemia
NCI-H522 lung = system: NCI-H522 lung
KM12 colon = system: KM12 colon
M14 melanoma = system: M14 melanoma
IGROV1 ovarian = system: IGROV1 ovarian
MDA-MB-435 = system: MDA-MB-435
U251 CNS = system: U251 CNS
SK-MEL-2 melanoma = system: SK-MEL-2 melanoma
CCRF-CEM leukemia = system: CCRF-CEM leukemia
HOP-92 NSCLC = system: HOP-92 NSCLC
CAKI-1 renal = system: CAKI-1 renal
OVCAR-4 ovarian = system: OVCAR-4 ovarian
SF-268 CNS = system: SF-268 CNS
SR leukemia = system: SR leukemia
K-562 leukemia = system: K-562 leukemia
ACHN renal = system: ACHN renal
A498 renal = system: A498 renal
DU-145 prostate = system: DU-145 prostate
HCT-15 colon = system: HCT-15 colon
T-47D breast = system: T-47D breast
786-0 renal = system: 786-0 renal
COLO 205 colon = system: COLO 205 colon
HCT-116 colon = system: HCT-116 colon
NCI-H226 lung = system: NCI-H226 lung
NCI/ADR-RES ovarian = system: NCI/ADR-RES ovarian
MALME-3M melanoma = system: MALME-3M melanoma
UACC-257 melanoma = system: UACC-257 melanoma
SF-295 CNS = system: SF-295 CNS
A549 NSCLC = system: A549 NSCLC
TK-10 renal = system: TK-10 renal
HOP-62 NSCLC = system: HOP-62 NSCLC
EKVX NSCLC = system: EKVX NSCLC
OVCAR-3 ovarian = system: OVCAR-3 ovarian
NCI-H460 lung = system: NCI-H460 lung
OVCAR-5 ovarian = system: OVCAR-5 ovarian
MOLT-4 leukemia = system: MOLT-4 leukemia
LOX IMVI melanoma = system: LOX IMVI melanoma
OVCAR-8 ovarian = system: OVCAR-8 ovarian
PC-3 prostate = system: PC-3 prostate
SK-MEL-5 melanoma = system: SK-MEL-5 melanoma
SK-MEL-28 melanoma = system: SK-MEL-28 melanoma
SF-539 CNS = system: SF-539 CNS
MDA-N = system: MDA-N
BT-549 breast = system: BT-549 breast
NCI-H23 lung = system: NCI-H23 lung
HT29 colon = system: HT29 colon
MDA-MB-231 breast = system: MDA-MB-231 breast
RXF 393 renal = system: RXF 393 renal
SNB-75 CNS = system: SNB-75 CNS
RPMI-8226 leukemia = system: RPMI-8226 leukemia
MCF7 breast = system: MCF7 breast
SN12C renal = system: SN12C renal
SW-620 colon = system: SW-620 colon
SNB-19 CNS = system: SNB-19 CNS
UACC-62 melanoma = system: UACC-62 melanoma

Measured: TGI

OC(CC(CC(O)(C(F)(F)F)C(F)(F)F)=NN=C(CC(O)(C(F)(F)F)C(F)(F)F)CC(O)(C(F)(F)F)C(F)(F)F)(C(F)(F)F)C(F)(F)F
> 10 µM: all assays above
